According to patent publication US8367835B2, “Cyclic amine-1-carboxylic acid ester derivative and pharmaceutical composition containing the same” (Dainippon Sumitomo Pharma Co., Ltd., priority 2008, dated 2013):
Read-outs that look alike come from different tables or passages of the source.

Columns and labels:
[1] = molecular target: T1, TRPV1 (Rattus norvegicus, UniProt O35433); experiment: TRPV1 agonist activity by intracellular calcium level (FLIPR method); format: cell-based; conditions: rat dorsal root ganglion primary culture cells
T1 construct: using cultured rat dorsal root ganglion cells which express TRPV1 abundantly; endogenous in cells; host or cells: primary culture of dorsal root ganglion cells from 7 day old Wistar rat
T1 sequence (O35433 whole entry): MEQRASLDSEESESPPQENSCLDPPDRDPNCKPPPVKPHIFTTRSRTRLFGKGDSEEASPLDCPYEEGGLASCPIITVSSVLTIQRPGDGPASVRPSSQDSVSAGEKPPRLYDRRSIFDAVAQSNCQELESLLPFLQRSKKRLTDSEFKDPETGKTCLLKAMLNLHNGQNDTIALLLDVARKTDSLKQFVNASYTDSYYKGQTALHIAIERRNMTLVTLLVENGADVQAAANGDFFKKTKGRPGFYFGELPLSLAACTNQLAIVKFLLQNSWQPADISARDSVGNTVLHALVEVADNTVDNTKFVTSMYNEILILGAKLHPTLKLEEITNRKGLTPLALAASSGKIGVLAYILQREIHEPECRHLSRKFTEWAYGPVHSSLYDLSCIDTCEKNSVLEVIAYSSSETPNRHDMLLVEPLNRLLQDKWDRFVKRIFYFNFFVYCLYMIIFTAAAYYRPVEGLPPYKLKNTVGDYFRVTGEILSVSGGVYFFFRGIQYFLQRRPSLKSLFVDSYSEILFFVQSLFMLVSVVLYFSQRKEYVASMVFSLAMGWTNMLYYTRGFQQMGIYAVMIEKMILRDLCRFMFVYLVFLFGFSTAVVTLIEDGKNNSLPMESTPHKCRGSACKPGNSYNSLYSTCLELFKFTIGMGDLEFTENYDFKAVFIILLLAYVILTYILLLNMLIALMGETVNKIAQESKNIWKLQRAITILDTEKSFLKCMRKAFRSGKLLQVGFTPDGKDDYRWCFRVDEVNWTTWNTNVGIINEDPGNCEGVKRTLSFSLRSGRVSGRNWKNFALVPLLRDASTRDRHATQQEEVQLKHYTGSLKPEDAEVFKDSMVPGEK
Source text: The test is to measure the elevation of intracellular calcium level as the indicator of TRPV1 agonist activity of a test compound using cultured rat dorsal root ganglion cells which express TRPV1 abundantly, and carried out in accordance with the method of Jerman et al. (Jerman, J. C. et al., Comparison of effects of anandamide at recombinant and endogenous rat vanilloid receptors. Br J Anaesth, 2002. 89(6): p. 882-7). More specifically, the dorsal root ganglion was removed from a 7 day old Wistar rat, and the cells were isolated by collagenase-trypsin treatment. Subsequently, the primary cells was cultured in a CO2 incubator controlled at 5% CO2 and 37° C. for 2 days. The culture medium used was Neurobasal™ medium supplemented with L-glutamine, nerve growth factor, N-2-Supplement, Penicillin-Streptomycin, 5-Fluoro-2′-deoxyuridine (culture day 1 only) were added to.
FLIPR^TETRA system (Molecular Devices Corp.) was used to measure the intracellular calcium concentration. As an indicator of TRPV1 agonistic activity, the fluorescence intensity elevation was monitored when a test compound is applied to the rat dorsal root ganglion primary culture cells loaded with a calcium-sensitive fluorescent reagent.

[2] = test system: eye of a Std: ddy male mouse; experiment: Pungency: eye-wiping test; format: in vivo; conditions: 10 μg/ml, one drop to mouse eye, counted every minute up to 5 minutes
Method: The test is to examine the pungency of the compound of the present invention, and was carried out in accordance with the method by Jancso et al. [Acta. Physiol. Acad. Sci. Hung., 19, 113-131 (1961)] and the method by Szallasi et al. [Brit. J. Pharmacol., 119, 283-290 (1996)]. Specifically, the test compounds were dissolved in physiological saline containing 5% Tween 80 and 5% ethanol to give each (10 or 30 μg/ml) concentration, and one drop of the obtained solution was applied to the eye of a Std: ddy male mouse (5 mice per group, body weight 20 to 30 g) and the number of the protective wiping behavior with the front paws was counted every minute up to 5 minutes after the administration. Then, the average counts in each minute was calculated and the maximum number was defined as the representative value. Further, as vehicle control, the same test was carried out using physiological saline containing 5% Tween 80 and 5% ethanol.

[3] = test system: mechanical hyperalgesia in a neuropathic pain model (rat Chung model); experiment: Analgesic effect: von Frey filament test using rat Chung model, transdermal administration; format: in vivo; conditions: 0.1% formulation applied transdermally to plantar surface of left hindlimb once a day for 2 weeks; measured on the day after last administration; pre-administration value = 100%
Method: The present test is to measure the analgesic effect based on the improvement level of the mechanical hyperalgesia in a neuropathic pain model as the indicator by transdermally administering the compound of the present invention and was carried out in accordance with the method of Kim and Chung [Pain, 50, 355-363 (1992)] or the method of Tsuda et al. [Nature, 424, 778-783, 2003].
Specifically, using Jcl: Wistar male rat (7 to 9 rats/group, 5 weeks of age at the time of surgery), spinal nerves were injured to induce hyperalgesia and the withdrawal threshold was measured using the von Frey filament. In the surgery, under Pentobarbital anesthesia, the left L5 spinal nerve was exposed, ligated near the spinal cord using a silk suture (5-0) and transected just peripheral to the ligation. After suturing the incision and keeping the rats for 2 weeks, the rats were subjected to the von Frey filament test. The measurement of the mechanical hyperalgesia was carried out by applying von Frey filaments (1.0, 2.0, 4.0, 8.0, 15.0 g) to the plantar surface of the left hindlimb, and the filament intensity at which 50% or higher withdrawal behavior was observed was defined as the withdrawal threshold.
After dissolving the test compounds in a mixture of Tween 80 and ethanol, the obtained solution was mixed with a hydrophilic ointment to prepare a formulation having a concentration of 0.1%. The withdrawal threshold before administering the test compound was measured to define the pre-administration value (100%). Thereafter, once a day, for 2 weeks, the formulation having a concentration of 0.1% was transdermally administered (applied) to the plantar surface of the left hindlimb, the von Frey filament test was carried out on the following day of the last administration to measure the post-administration value. Further, the same formulation as above but free of the test compound was prepared as a vehicle control and the same test was carried out.
The analgesic effect is a relative ratio when a test compound pre-administration value calculated using the following numerical formula is 100%. The pre-administration withdrawal threshold was 3.3±0.1 g (119 cases) (the withdrawal threshold of sham-operated rat was 10 to 15 g). %=(test compound post-administration withdrawal threshold value/pre-administration withdrawal threshold value)×100

[4] = test system: micronucleus-containing immature erythrocyte; experiment: Bone marrow micronucleus test; format: in vivo, rat; conditions: subcutaneous, twice every 24 hours, Crl: CD male rats; dosage at which fatal cases start occurring and dosages up thereto
Method: Each compound of Examples 2, 16 and 37 dissolved in physiological saline containing ethanol and Tween 80 was subcutaneously administered to Crl: CD male rats twice every 24 hours and micronucleus inducing potential was evaluated.

[5] = test system: mechanical hyperalgesia in a neuropathic pain model (rat Chung model); experiment: Analgesic effect in combination with Pregabalin: von Frey filament test using rat Chung model, i.pl. administration; format: in vivo; conditions: for % to pre-administration value: (1) Test compound post-i. pl. administration value: 50 μl of 0.1% (W/V) solution intraplantar to left hindlimb, measured on the following day, test compound alone; for % to pre-administration value: (2) Pregabalin post-oral administration value (Test compound administered on the day before): test compound i.pl. the day before plus Pregabalin 10 mg/kg orally, combined effect
Method: The study was conducted using the same methods and evaluation criteria as in Test Example 1 with the exception of the administration route of the test compounds (see Test Example 1).
Using the von Frey filaments the test compound pre-administration values (pressure withdrawal threshold) were measured. Subsequently, 50 μl of a solution containing a test compound or vehicle control was intraplantarly injected to the left hindlimb using a microsyringe (intraplantar injection: i. pl. administration), and on the following day the withdrawal threshold was measured (effect of the test compound alone). Thereafter, 10 mg/kg of Pregabalin was orally administered and an hour later the withdrawal threshold was measured (combined effect).
Pregabalin was dissolved in distilled water. Physiological saline containing Tween 80 and ethanol was used as the vehicle control for the i. pl. administration.
The analgesic effect is a relative ratio when a pre-administration value calculated using the following numerical formula is 100%.

[6] = read-out: Value (%) when fluorescence intensity for capsaicin (1 μM) is 100%, 1 μM

COc1cc(CNC(=O)CCCC/C=C/C(C)C)ccc1O [Capsaicin, (E)-8-methyl-N-vanillyl-6-nonenamide, reference compound]
Value (%) when fluorescence intensity for capsaicin (1 μM) is 100% ([1]; 1 μM): 100%
Representative value of the counts of protective wiping behavior (Maximum counts, counts/min) [2]: 20.0 counts/min
Representative value of the counts of protective wiping behavior (Maximum counts, counts/min) ([2]; listed as capsaicin): vigorous wiping behavior was observed
% to pre-administration value (withdrawal threshold) [3]: 228%

CC[C@H]1CC[C@H](OC(=O)N2CCC(C(=O)NCc3ccc(O)c(OC)c3)CC2)CC1 [Example 2]
Emax at 1 µM [1, 6]: 84%
micronucleus inducing potential [4]: no micronucleus inducing potential

COc1cc(CNC(=O)C2CCN(C(=O)OC3CCC(C)(C)CC3)CC2)ccc1O [Example 8]
Emax at 1 µM ([1]; 1 μM, read-out: Value (%) when fluorescence intensity for capsaicin (1 μM) is 100%): 96%
melting point: 111 °C
% to pre-administration value: (1) Test compound post-i. pl. administration value [5]: 197%
% to pre-administration value: (2) Pregabalin post-oral administration value (Test compound administered on the day before) ([5]; measured an hour later): 244%
% to pre-administration value (withdrawal threshold) [3]: 191%

COc1cc(CNC(=O)C2CN(C(=O)O[C@H]3CC[C@@H](C(C)(C)C)CC3)C2)ccc1O [Example 16]
Emax at 1 µM [1, 6]: 84%
micronucleus inducing potential [4]: no micronucleus inducing potential
% to pre-administration value: (1) Test compound post-i. pl. administration value [5]: 200%
% to pre-administration value: (2) Pregabalin post-oral administration value (Test compound administered on the day before) ([5]; measured an hour later): 223%
% to pre-administration value (withdrawal threshold) [3]: 218%

COc1cc(CNC(=O)C2CCN(C(=O)O[C@@H]3CCCC[C@@H]3C)CC2)ccc1O [Example 37, (1R,2S)-2-methylcyclohexyl 4-(4-hydroxy-3-methoxybenzylcarbamoyl)-piperidine-1-carboxylate]
Value (%) when fluorescence intensity for capsaicin (1 μM) is 100% ([1]; 1 μM): 101%
micronucleus inducing potential [4]: no micronucleus inducing potential
% to pre-administration value: (1) Test compound post-i. pl. administration value [5]: 169%
% to pre-administration value: (2) Pregabalin post-oral administration value (Test compound administered on the day before) ([5]; measured an hour later): 219%
% to pre-administration value (withdrawal threshold) [3]: 236%

COc1cc(CNC(=O)C2CCN(C(=O)O[C@H]3CCCC[C@H]3C)CC2)ccc1O [Example 38, (1S,2R)-2-methylcyclohexyl 4-(4-hydroxy-3-methoxybenzylcarbamoyl)-piperidine-1-carboxylate]
Emax at 1 µM [1, 6]: 97%
% to pre-administration value (withdrawal threshold) [3]: 243%

CC(C)C[C@H](CN)CC(=O)O [Pregabalin, reference compound]
% to pre-administration value: (2) Pregabalin post-oral administration value (vehicle control administered on the day before) ([5]; vehicle i.pl. the day before, Pregabalin 10 mg/kg orally, measured an hour later, Pregabalin alone): 125%
